Assay results as given in PubChem BioAssay AID1159559 (GlaxoSmithKline (GSK), 2015).
Calls of active or inactive are those of the source.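 Rule for the calls: active = compounds whose IC50 against parasite growth in infected mouse cells is below 50000 nM; inactive = the rest.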

System: T. cruzi Tulahuen in NIH-3T3, beta-gal fluorescence, 4 d
Test: anti-Chagas amastigote proliferation inhibitors – cell-based (AID 1159559)

SMILES | IC50
Cc1c(C(=O)NCCCCn2ccnc2)oc2c(C)cccc12 | 200 nM
CN(C)CCN(C)Cc1ccc(Cl)cc1NS(=O)(=O)c1ccc(Cl)c(Cl)c1 | 1000 nM
CCCNC(=O)Nc1cccc(-c2nc3ncccc3o2)c1 | 2500 nM
O=C(NCCc1cccnc1)c1ccc(-c2ccccc2F)o1 | 100 nM
O=[N+]([O-])c1ccc(C2=CC(c3ccccc3)=NCCN2)cc1 | 500 nM
COc1cc2c(cc1OC)[C@H]1[C@@H](C)c3ccc(OC)c(OC)c3CN1CC2 | 25000 nM
N#Cc1ccc(Br)cc1[N+](=O)[O-] | 250 nM
O=C(NC1C(=O)N(c2ccccc2)C1c1cccnc1)c1ccc(Cl)s1 (stereo not given) | 32 nM
c1cc(-c2ncc(-c3ccn[nH]3)s2)ccn1 | 160 nM
O=C(c1cnn(-c2ccccc2)n1)N1CCCC(n2ccnc2)C1 (stereo not given) | 50 nM
Cc1[nH]n2c(=O)c3c(nc2c1-c1ccc(F)cc1)CCCC3 | 1600 nM
Cc1ccc(NC(=O)C(C)n2nc([N+](=O)[O-])c(Br)c2C)cc1Cl (stereo not given) | 2500 nM
CCC(=O)Nc1ccc(-c2nc3ccc(Cl)cc3[nH]2)cc1 | 2000 nM
COc1ccc(C2CC(c3ccccc3Cl)=NN2C(=O)CNC(=O)C2CCC2)cc1 (stereo not given) | 2500 nM
CC(C)Oc1cccc(N2CCC(C(=O)N3CCCN(C(C)C)CC3)CC2)c1 | 1300 nM
COc1ccc(-c2nc3ccncc3c(=O)n2CCOc2ccccc2)cc1 | 630 nM
Cc1ccc(NC(=O)c2ccnc(N3CCCC3)c2)cc1-c1cc(C(N)=O)ccc1C | 6300 nM
O=C(Nc1ccc(C(=O)N2CCCC2c2ccc3c(c2)OCCCO3)cc1)c1ccco1 (stereo not given) | 500 nM
N#Cc1cc([N+](=O)[O-])ccc1NC1CCCCCC1 | 2500 nM
CCN(Cc1nc2ccc(C(=O)N3CCN(c4ncccn4)CC3)cc2[nH]1)C1CCCc2cccnc21 (stereo not given) | 1300 nM
COc1ccc(C2C3CCCCC3(O)CCN2CC(=O)Nc2ccc(Cl)cc2Cl)cc1 (stereo not given) | 2500 nM
CC(=O)Nc1ccc(-c2noc(CC3CCCN(Cc4cccc(F)c4C)C3)n2)cc1 (stereo not given) | 1000 nM

SMILES | IC50
COc1cccc(CCNC(=O)C(c2cn[nH]c2)N2CCN(c3ccc(Cl)cc3)CC2)c1 (stereo not given) | 20 nM
O=C(CSc1nnc2ccc(-c3ccc(F)cc3)nn12)N1CCCCC1 | 2500 nM
Nc1nc(-c2ccccn2)nc(-n2nc(-c3ccccc3)cc2N)n1 | 500 nM
O=C(Nc1cccc(S(=O)(=O)Nc2ccc(Br)cc2)c1)c1ccc([N+](=O)[O-])s1 | 100 nM
c1ccc(CCNCc2cncc3nc(-c4cnccn4)n(C4CCCCC4)c23)cc1 | 320 nM
N#CN1CC[C@@H](NC(=O)Nc2ccccc2Oc2ccccc2)C1 | 5000 nM
N#Cc1cc(N2CCCC2=O)ccc1Sc1ccccc1CO | 250 nM
CCc1ccccc1[C@@H](C)NC(=O)c1cnc2c(cnn2CC)c1NC1CCN(C(N)=O)CC1 | 25000 nM
Cc1ccccc1NS(=O)(=O)c1ccc2[nH]cc(C(=O)NC3CCCC3)c(=O)c2c1 | 25000 nM
CC(=O)Nc1ccc(-c2cnc(N)c(-c3nc4ccc(F)cc4[nH]3)c2)cc1 | 630 nM
COc1ccc(S(=O)(=O)Nc2ccc(C(=O)Nc3nc(-c4ccccn4)cs3)cc2)cc1 | 790 nM
CC1=C(C(=O)Nc2ccc(Cl)cc2)C(c2ccncc2)n2ncc(C(=O)Nc3ccccc3)c2N1 (stereo not given) | 20 nM
O=C(Nc1nccs1)c1ccccc1Cn1cc([N+](=O)[O-])cn1 | > 50000 nM (inactive)
Cc1ncsc1CNc1cnc(-c2ccc3c(c2)OCCO3)c(-c2cnn(C)c2)c1 | 13000 nM
O=C(CN(Cc1ccccn1)Cc1ccccn1)NCc1csc(-c2cccs2)n1 | 4000 nM
COc1cc(C(C)C)c(S(C)(=O)=O)cc1C(=O)N1CCN(c2ccccc2Cl)CC1 | 1600 nM
Cc1nc(C(=O)Nc2ccc3c(c2)OCO3)nn1-c1ccc(Cl)cc1 | 6300 nM
O=C(NCCc1ccccc1Cl)c1cccn1-c1cccnc1 | 400 nM
N#Cc1cccc(Cc2cc(Nc3cc(C4CC4)[nH]n3)nc(N3CC[C@H]3C(N)=O)n2)c1 | 400 nM
COc1ccc2nccc(NC(=O)C3(OC)CCN(CC(O)c4ccc5c(c4)OCCO5)CC3)c2n1 (stereo not given) | 250 nM
O=C(Nc1nc(-c2ccccn2)cs1)c1ccccc1-n1cnnn1 | 3200 nM
CCC(CC)C(=O)Nc1cccc(C(=O)Nc2nnc(C3CCCCC3)s2)c1 | 10000 nM

SMILES | IC50
O=C(NCc1ccncc1)c1ccccc1N1CCCN(C(=O)Cc2ccc(F)c(F)c2)CC1 | 130 nM
CNC(=O)C1Cc2ccccc2N1C(=O)Cc1ccc(OC)cc1 (stereo not given) | > 50000 nM (inactive)
Nc1nccc(-c2csc(Nc3ccc(Cl)cc3)n2)n1 | 1300 nM
Cc1cn[nH]c1C1CCCN(Cc2nc3ccccc3n2C)C1 (stereo not given) | 3200 nM
CCc1ccc2nc(NC(=O)c3cc(N4CCOCC4)ccn3)sc2c1 | 2500 nM
O=C(NNC(=O)c1ccccn1)c1ccc(-c2ccccc2)cc1 | 1600 nM
Cc1[nH]n2c(=O)c3c(nc2c1-c1ccc(Cl)cc1)CCCC3 | 400 nM
Cn1nc([N+](=O)[O-])nc1Oc1ccc(C(=O)c2ccccc2)cc1 | 250 nM
C[C@@H](Oc1cc(-n2cnc3ccc(O[C@H]4CCNC4)cc32)sc1C(N)=O)c1ccccc1Cl | 3200 nM
CC(C)(C)C(=O)Nc1cc(C2CC2)nn1-c1nc2c(c(=O)[nH]1)CCCC2 | 500 nM
COc1ccccc1-n1c(SCC(=O)Nc2ccc3c(c2)OCO3)nc2c(c1=O)SCC2 | 40000 nM
CN(C)Cc1ccc(N2CCC(NS(=O)(=O)c3ccc(Cl)cc3)CC2)cc1 | 790 nM
O=c1cc(CSc2ccc(Cl)cc2)nc(-c2ccccn2)[nH]1 | 1000 nM
CC(C)n1c(-c2nonc2N)nc2cccc(OCCN3CCCC3)c21 | 10000 nM
Cc1ccc(C)c(OC2CCN(C(=O)C(C)n3ccnc3)CC2)c1 (stereo not given) | 160 nM
O=C(c1cccc(Cl)c1Cl)N1CCn2c1nc(-c1ccncc1)cc2=O | 160 nM
CCN(CC)S(=O)(=O)c1ccc(Cn2nc(C(=O)Nc3ccncn3)c3ccccc32)cc1 | 320 nM
O=C(NC(CO)c1ccc(F)cc1)c1ccc(-c2c[nH]c3ncccc23)s1 (stereo not given) | 10000 nM
COc1ccc(-c2cnc(C)o2)cc1S(=O)(=O)Nc1ccc(C)cc1C | 2500 nM
COc1ccc(Cc2nc(-c3ncc4cccnc4c3O)n[nH]2)cc1OC | 1300 nM
Cc1c(C(C)NC(=O)Nc2cccc(Cl)c2)sc2ncnn12 (stereo not given) | 130 nM
CCS(=O)(=O)Nc1ccc(C2=NN(C(=O)c3cccs3)C(c3ccccc3OC)C2)cc1 (stereo not given) | 7900 nM

SMILES | IC50
Cc1[nH]n2c(=O)c3c(nc2c1-c1ccc(Br)cc1)CCCC3 | 1000 nM
CCCc1cc(C(=O)Nc2ncc(-c3cccc(Br)c3)n2C)n[nH]1 | 2500 nM
c1ccc2[nH]c(-c3ccc(N4CCCC4)nc3)nc2c1 | 1000 nM
CCN(CC)S(=O)(=O)c1ccc(OC)c(NC(=O)c2ccc([N+](=O)[O-])s2)c1 | 250 nM
Cc1nn(-c2nc(N)nc(-c3ccccn3)n2)c(N)c1-c1ccccc1 | 4000 nM
O=C(Nc1nc2ccccc2[nH]1)c1c(O)c2cccc3c2n(c1=O)CC3 | 20000 nM
COc1ccc(Nc2nc(NC3CCC(O)CC3)ncc2Br)c(C(N)=O)c1 (stereo not given) | 4000 nM
Cc1nn(C)c(Cl)c1CN(Cc1cccnc1)Cc1ccsc1 | 160 nM
CCc1c(C)nc(-n2nc(C)cc2NC(=O)COc2ccccc2F)[nH]c1=O | 630 nM
Cc1cc(Nc2cc(C3CC3)[nH]n2)nc(N2CCCC2)n1 | 79 nM
Cc1cc(Oc2cc(Cl)c(Cl)cc2Cl)n2ncnc2n1 | 5000 nM
O=C1CSC(c2cccnc2)N1c1ccc(Cl)cc1Cl (stereo not given) | 63 nM
Cc1ccccc1NS(=O)(=O)c1ccc2[nH]cc(C(=O)NC3CCCC(C)C3C)c(=O)c2c1 (stereo not given) | 5000 nM
CN(Cc1nc2c(C(=O)N3CCN(Cc4ccccc4)CC3)cccc2[nH]1)C1CCCc2cccnc21 (stereo not given) | 790 nM
CCNc1cc(-c2ccccn2)nc(Nc2ccc(OC)cc2)n1 | 630 nM
CN(C)Cc1cccc(Nc2nccc(-c3ccc(NCCN)c(C#N)c3)n2)c1 | 1000 nM
OC[C@@H](Nc1nccc(-c2c(-c3ccc(F)cc3)ncn2C2CCNCC2)n1)c1ccccc1 | 32000 nM
Cc1cc(C)n(-c2nc(NC(C)(C)C)nc(N3CCOCC3)n2)n1 | 5000 nM
Cc1ccccc1CNC(=O)CN(Cc1ccccn1)Cc1ccccn1 | 5000 nM
O=c1cc(NCCCNC2CCOc3c(I)cc(Cl)cc32)[nH]c2ccccc12 (stereo not given) | 790 nM
O=C(NCC1CCCCC1)c1cc(=O)c2ccccc2o1 | 400 nM
CCN(C)Cc1ccc(N2CCC(NS(=O)(=O)c3ccc4c(c3)CCO4)CC2)nc1 | 630 nM

SMILES | IC50
Cc1cccc(N2CCCN(Cc3c[nH]c4ccccc34)CC2)n1 | 320 nM
Cc1[nH]nc2c1C(c1ccc(OCc3ccccc3F)cc1)SCC(=O)N2 (stereo not given) | 2000 nM
CC(=O)NC1(c2ccccc2)CCN(CC(=O)Nc2ccccc2-c2ccccc2)CC1 | 1300 nM
COc1cc(Cl)c(C)cc1NC(=O)c1ccc([N+](=O)[O-])s1 | 630 nM
CC(C)Nc1nccc(-c2c(-c3ccc(F)cc3)ncn2C2CCOCC2)n1 | 250 nM
Cc1ccc(S(=O)(=O)Nc2ccc(CN3CCN(C(=O)c4cccc(C#N)c4)CC3)cc2)cc1 | 500 nM
Cc1ccccc1OCC(=O)N1CCCN(c2cccnn2)CC1 | 320 nM
CN1CCC(N(C)c2nccc(N3CCN(C(=O)c4cccc(-c5cccnc5)c4)CC3)n2)CC1 | 320 nM
O=C(NCC(c1cccnc1)N1CCc2ccccc2C1)C(=O)Nc1cccc(Cl)c1 (stereo not given) | 200 nM
COc1ccc(C(=O)Nc2cc(C(F)(F)F)ccc2N2CCOCC2)c(OC)c1 | 1000 nM
Fc1ccc(OC2CC(NCc3cccc4cn[nH]c34)C2)cc1C(F)(F)F (stereo not given) | 790 nM
O=C(COc1nn(-c2ccccc2)c2ncccc12)NCc1ccccc1 | 13000 nM
CC1CCCN(S(=O)(=O)c2ccc(C(=O)Nc3nc(-c4ccccn4)cs3)cc2)C1 (stereo not given) | 400 nM
N#Cc1cccc(CN2CCC(N(Cc3cccnc3)C(=O)c3cc(F)c(F)cc3F)CC2)c1 | 400 nM
O=C(c1ccc(Cl)cc1)c1ccc(OC(=O)N2CCOCC2)cc1 | 13000 nM
O=C(NCCCn1cnc2ccccc21)c1ccc(NC(=O)c2ccco2)cc1 | 4000 nM
Cc1cc(Br)cc(C(=O)c2c(C(C)C)c(=O)[nH]c(=O)n2Cc2ccnc(N)c2)c1 | 400 nM
O=C1CN(C(=O)c2cccc(Nc3ncc(-c4ccc5c(c4)OCO5)cn3)c2)CCN1 | 1600 nM
Cc1cc(C)n(-c2nc(NC(C)C)nc(NC(C)(C)C)n2)n1 | 2000 nM
CNS(=O)(=O)c1ccccc1Nc1nc(Nc2cc(C)nn2C)ncc1Cl | 400 nM
Cc1cc(N(C)C)nc(Nc2ccccc2C)n1 | 1600 nM
Cc1nc2nc(C)c(Cc3ccc(C(C)C)cc3)c(=O)n2[nH]1 | 500 nM
